Measured values as given in patent US20250340593A1, “METHOD AND COMPOSITION FOR TREATING NEURODEGENERATIVE DISORDER” (priority 2022, published 2025).
Residues, ends and D or L forms follow the SMILES beside them.

Assays:
[1] = biological target: T1, biotinylated Aβ42 oligomers (Aβo (42)) (Homo sapiens, UniProt P05067); assay: Peptide array probed with biotinylated Aβ42 oligomers; format: binding; details: biotinylated Aβo 0.1 to 10 μg.mL-1, BP result at the lowest concentration (0.1 μg/ml-1)
T1 construct: purchased Bachem; host or cells: chemical synthesis
T1 sequence (P05067 672-713 limits assumed): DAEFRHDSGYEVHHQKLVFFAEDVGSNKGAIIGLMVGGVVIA
Procedure: In the context of the invention, cellulose-bound peptide arrays encompassing the heparin binding domain and the C-terminal human VEGF sequence (UniProtKB #P15692) were synthesized by Proteomic Solutions. Overlapping 15-mer peptides were shifted by 3 aa and two copies of the same array were spotted on the slide for quality control and reproducibility. Arrays were blocked for 2 h in Tris buffered saline, 1% Tween 20, 5% BSA to prevent unspecific binding, and were subsequently probed for 15 h at 4° C. with biotinylated AB42 oligomers (Aβo (42)) using concentrations varying from 0.1 to 10 μg.mL-1 or vehicle used as a control. After washing in TBS 1% Tween 20, peptide arrays were incubated with HRP-conjugated Streptavidin for 2 h at RT. Aβo interaction was detected using SuperSignal West Pico PLUS chemiluminescent substrate and non-specific Aβ binding was determined using the control peptide (CP) spotted on the peptide array. […]
Cellulose-bound peptide arrays encompassing the heparin binding domain and the C-terminal human VEGF sequence (UniProtKB #P15692) were synthesized by Proteomic Solutions. […] Aβo interaction was detected using SuperSignal West Pico PLUS chemiluminescent substrate and non-specific Aβ binding was determined using the control peptide (CP) spotted on the peptide array. […]

[2] = biological target: T2, Aβo-VEGF interaction (recombinant human VEGF165) (Homo sapiens, UniProt P05067); assay: Competitive ELISA of Aβo binding to immobilized VEGF; details: for inhibition of the binding of Aβo to VEGF: biotinylated Aβ42 oligomers 2.1 μM, peptide 10 nM to 100 μM
T2 construct: purchased Bachem
T2 sequence (P05067 672-713 limits assumed): as above
Procedure: Competitive ELISA experiments were performed to analyze the ability of the BP to impede AB42 oligomers binding to VEGF. For these assays, recombinant human VEGF165 (500 ng/ml-1) was immobilized in the 96-well microplate as the capture antigen and incubated overnight at 4° C. The following day, biotinylated AB42 oligomers were precubated at 2.1 μM for 1 h at RT with various concentrations of the CP or BP ranging from 10 nM to 100 μM. After 3 rinces with PBS 0.05% Tween 20, the mix was added in triplicate and incubated for 2 h at RT. Next, a washing step was performed followed by an incubation with the HRP-conjugated streptavidin for 20 min, additional rinces and finally the substrate solution containing TMB and H2O2. Absorbance was measured using a TECAN microplate reader.

[3] = tested on: hippocampal slices from 8-month-old WT and APP/PS1 mice; assay: LTP field potential recordings in acute hippocampal slices; set-up: species or system mouse; details: for LTP amplitude computed as fEPSP slope 50 to 60 min after TBS / effect on LTP responses in WT slices: peptide 500 nM for 40 min before TBS
Procedure: Animals specimens Embryonic day 17-18 (E17-18) C57BI/6JRj wild-type male and female mice were used for primary hippocampal cell cultures. Electrophysiological field potential recording experiments were performed on 8-month-old wild type and transgenic heterozygous male APP/PS1-21 mice generated on a C57Bl/6 background and expressing a transgene combining human APP with the Swedish mutation (APPKM670/671NL) and mutated L166P human presenilin 1 (PS1) under the Thyl promoter (Radde et al, 2006). Wild type and APP/PSI mice were generated as described previously (Radde et al, 2006) and genotyping was carried out to reveal the presence or absence of APP and PSI transgenes. The study was conducted in accordance with the European Community Council directive 2010/63/EU on the protection of animals used for experimental and scientific purposes. Animal care and treatment procedures were realized according to the guidelines approved by the French Ethical Committee of the Lyon 1 University (DR2013-47).
Local field potential recordings (LFP) were performed on acute coronal hippocampal slices from 8-month-old wild type and transgenic heterozygous male APP/PS1-21 mice to measure baseline synaptic response and long-term potentiation (LTP) of Schaffer collaterals to CAI pyramidal cell synapses. Hippocampal slices (400 μm thick) were cut using a vibratome (Leica VT1200S) and incubated at room temperature in artificial cerebrospinal fluid (ACSF) containing (in mM): 124 NaCl, 10 glucose, 1.25 NaH2PO4, 2.5 KCl, 26 NaHCO3, 1.3 MgCl2, and 2.5 CaCl2, bubbled with 95% 02 and 5% CO2, pH 7.4) for 1 h prior to recording. Field excitatory postsynaptic potentials (fEPSPs) were recorded extracellularly in stratum radiatum of CAI region of the dorsal hippocampus in presence of gammaaminobutyric acid (GABA)-A receptor antagonist picrotoxin (100 μM). Electrical stimulation was realized with a bipolar tungsten electrode placed in CAI stratum radiatum and fEPSPs were measured using borosilicate glass microelectrodes (˜1-3 M (2) filled with ACSF. The tip of the recording electrode was located close to the slice surface. LFP were amplified and low-pass filtered at 3 kHz using a differential amplifier (X1000, WPI) and data acquisition and analyses were carried out using a National Instrument interface coupled with Elphy software (G. Sadoc, CNRS, France). LFP were sampled at 10 kHz and fEPSPs initial slope was computed to quantify synaptic responses. After baseline recordings of synaptic activity evoked at 0.2 Hz for at least 10 minutes, slices were incubated in ACSF or treated with the CP or BP at 500 nM for 40 min before inducing LTP with the theta burst stimulation (TBS). The effects of the peptides on synaptic responses were tested in a series of pilot experiments on mice of both genotypes. […] TBS consisted of 10 trains separated by 30 s, each train composed of 6 bursts at 5 Hz and each burst providing 4 pulses at 100 Hz. Before LTP induction, precautions were taken to ensure that approximately the same amplitude of fEPSPs was obtained in baseline for the different experiments to achieve the same level of cooperativity in each group. After LTP induction, fEPSPs were recorded for at least 60 min.

Compound | labeling of peptide spot by biotinylated Aβo [1] | inhibition of the binding of Aβo to VEGF [2] | LTP amplitude computed as fEPSP slope 50 to 60 min after TBS ([3]; APP/PS1 slices) | LTP amplitude computed as fEPSP slope 50 to 60 min after TBS ([3]; WT slices) | effect on LTP responses in WT slices ([3]; WT slices) | Ki [2] | change in baseline synaptic responses before LTP induction ([3]; 500 nM, during the 40 min prior to LTP induction, mice of both genotypes)
NDYKDDDDKGAAA [CP, reference compound] | no labelling | did not inhibit | 119.8±9.1% | 191.4±18.3% | does not alter LTP responses |  | 
CC(C)[C@H](NC(=O)[C@H](Cc1ccc(O)cc1)NC(=O)[C@@H](NC(=O)[C@H](CO)NC(=O)[C@H](Cc1c[nH]c2ccccc12)NC(=O)[C@H](CO)NC(=O)[C@H](CCCCN)NC(=O)[C@H](Cc1ccc(O)cc1)NC(=O)[C@H](CCCNC(=N)N)NC(=O)[C@H](CO)NC(=O)[C@H](CCCCN)NC(=O)[C@H](CCCCN)NC(=O)[C@H](CCCNC(=N)N)NC(=O)[C@@H](N)CCCCN)C(C)C)C(=O)NCC(=O)O [BP, KRKKSRYKSWSVYVG] (H-KRKKSRYKSWSVYVG-OH; N-terminus and C-terminus assumed) | clear staining | clear dose-dependent reduction | 226.7±40.5% |  | does not alter LTP responses | 340 nM | did not induce a change
